Measured values taken from PubChem BioAssay (NCI).
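A five-concentration, 48-hour dose response in 96-well plates underlies each endpoint, interpolated linearly between surrounding concentrations. TGI: concentration producing complete growth inhibition.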

Assays:
Test in all cases: inhibition of tumour cell growth, NCI panel, 48 h
OVCAR-3 ovarian = tested on: OVCAR-3 ovarian
ACHN renal = tested on: ACHN renal
HOP-92 NSCLC = tested on: HOP-92 NSCLC
A549 NSCLC = tested on: A549 NSCLC
SK-OV-3 ovarian = tested on: SK-OV-3 ovarian
SK-MEL-28 melanoma = tested on: SK-MEL-28 melanoma
LXFL 529 NSCLC = tested on: LXFL 529 NSCLC
HL-60(TB) leukemia = tested on: HL-60(TB) leukemia
HCT-116 colon = tested on: HCT-116 colon
NCI-H226 lung = tested on: NCI-H226 lung
OVCAR-8 ovarian = tested on: OVCAR-8 ovarian
U251 CNS = tested on: U251 CNS
RPMI-8226 leukemia = tested on: RPMI-8226 leukemia
OVCAR-5 ovarian = tested on: OVCAR-5 ovarian
UACC-257 melanoma = tested on: UACC-257 melanoma
NCI-H23 lung = tested on: NCI-H23 lung
MOLT-4 leukemia = tested on: MOLT-4 leukemia
OVCAR-4 ovarian = tested on: OVCAR-4 ovarian
HCT-15 colon = tested on: HCT-15 colon
SK-MEL-2 melanoma = tested on: SK-MEL-2 melanoma
SN12C renal = tested on: SN12C renal
SF-539 CNS = tested on: SF-539 CNS
M14 melanoma = tested on: M14 melanoma
CCRF-CEM leukemia = tested on: CCRF-CEM leukemia
DMS 273 small cell lung = tested on: DMS 273 small cell lung
SF-295 CNS = tested on: SF-295 CNS
KM20L2 colon = tested on: KM20L2 colon
SK-MEL-5 melanoma = tested on: SK-MEL-5 melanoma
UACC-62 melanoma = tested on: UACC-62 melanoma
NCI-H522 lung = tested on: NCI-H522 lung
KM12 colon = tested on: KM12 colon
DLD-1 colon = tested on: DLD-1 colon
IGROV1 ovarian = tested on: IGROV1 ovarian
SW-620 colon = tested on: SW-620 colon
HT29 colon = tested on: HT29 colon
SF-268 CNS = tested on: SF-268 CNS
CAKI-1 renal = tested on: CAKI-1 renal
SNB-78 CNS = tested on: SNB-78 CNS
SNB-75 CNS = tested on: SNB-75 CNS
786-0 renal = tested on: 786-0 renal
TK-10 renal = tested on: TK-10 renal
UO-31 renal = tested on: UO-31 renal
HOP-18 NSCLC = tested on: HOP-18 NSCLC
K-562 leukemia = tested on: K-562 leukemia
EKVX NSCLC = tested on: EKVX NSCLC
MALME-3M melanoma = tested on: MALME-3M melanoma
HCC-2998 colon = tested on: HCC-2998 colon
DMS 114 small cell lung = tested on: DMS 114 small cell lung
A498 renal = tested on: A498 renal
M19-MEL melanoma = tested on: M19-MEL melanoma
SNB-19 CNS = tested on: SNB-19 CNS
RXF 393 renal = tested on: RXF 393 renal
COLO 205 colon = tested on: COLO 205 colon
NCI-H460 lung = tested on: NCI-H460 lung
LOX IMVI melanoma = tested on: LOX IMVI melanoma
HOP-62 NSCLC = tested on: HOP-62 NSCLC

Molecule `COc1ccc(C2=C3c4cc(OC)c(OC)cc4CCN3C(=S)SS2)cc1OC` has a TGI (OVCAR-3 ovarian) of over 100 µM, a TGI (ACHN renal) of over 100 µM and a TGI (HOP-92 NSCLC) of over 100 µM. The TGI (A549 NSCLC) was over 100 µM, the TGI (SK-OV-3 ovarian) was over 100 µM and the TGI (SK-MEL-28 melanoma) was over 100 µM. For the same molecule, the TGI (LXFL 529 NSCLC) was over 100 µM, the TGI (HL-60(TB) leukemia) was over 100 µM and the TGI (HCT-116 colon) was over 100 µM. For the same molecule, the TGI (NCI-H226 lung) was over 100 µM, the TGI (OVCAR-8 ovarian) was over 100 µM and the TGI (U251 CNS) was over 100 µM. The TGI (RPMI-8226 leukemia) was over 100 µM, the TGI (OVCAR-5 ovarian) was over 100 µM and the TGI (UACC-257 melanoma) was over 100 µM. It also gave a TGI (NCI-H23 lung) of over 100 µM, a TGI (MOLT-4 leukemia) of over 100 µM and a TGI (OVCAR-4 ovarian) of over 100 µM. It also gave a TGI (HCT-15 colon) of over 100 µM, a TGI (SK-MEL-2 melanoma) of over 100 µM and a TGI (SN12C renal) of over 100 µM. It also gave a TGI (SF-539 CNS) of over 100 µM, a TGI (M14 melanoma) of over 100 µM and a TGI (CCRF-CEM leukemia) of over 100 µM. For the same molecule, the TGI (DMS 273 small cell lung) was over 100 µM, the TGI (SF-295 CNS) was over 100 µM and the TGI (KM20L2 colon) was over 100 µM. For the same molecule, the TGI (SK-MEL-5 melanoma) was over 100 µM, the TGI (UACC-62 melanoma) was over 100 µM and the TGI (NCI-H522 lung) was over 100 µM. For the same molecule, the TGI (KM12 colon) was over 100 µM, the TGI (DLD-1 colon) was over 100 µM and the TGI (IGROV1 ovarian) was over 100 µM. For the same molecule, the TGI (SW-620 colon) was over 100 µM, the TGI (HT29 colon) was over 100 µM and the TGI (SF-268 CNS) was over 100 µM. The TGI (CAKI-1 renal) was over 100 µM, the TGI (SNB-78 CNS) was over 100 µM and the TGI (SNB-75 CNS) was over 100 µM. For the same molecule, the TGI (786-0 renal) was over 100 µM, the TGI (TK-10 renal) was over 100 µM and the TGI (UO-31 renal) was over 100 µM. It also gave a TGI (HOP-18 NSCLC) of over 100 µM, a TGI (K-562 leukemia) of over 100 µM and a TGI (EKVX NSCLC) of over 100 µM. For the same molecule, the TGI (MALME-3M melanoma) was 97.6 µM, the TGI (HCC-2998 colon) was over 100 µM and the TGI (DMS 114 small cell lung) was over 100 µM. For the same molecule, the TGI (A498 renal) was over 100 µM, the TGI (M19-MEL melanoma) was over 100 µM and the TGI (SNB-19 CNS) was over 100 µM. The TGI (RXF 393 renal) was over 100 µM, the TGI (COLO 205 colon) was over 100 µM and the TGI (NCI-H460 lung) was over 100 µM. It also gave a TGI (LOX IMVI melanoma) of over 100 µM and a TGI (HOP-62 NSCLC) of over 100 µM.
